The results in this text go back to patent US10301280B2 (Plexxikon Inc., priority 2012, dated 2019).

This assay relates to BaF3-FL KIT D816V or BaF3-FL KIT V560G/D816V cell line. Put plainly: Cell-based assays of c-Kit mutant kinase activity (cell growth, ATPlite). Conditions: at least one of the c-kit cell assays of Example 26. On the procedure: The c-Kit mutant D816V inhibitors were assessed using an engineered BaF3-FL KIT D816V or BaF3-FL KIT V560G/D816V cell line. The BaF3-FL KIT D816V cell lines were created by introduction of KIT mutant (D816V) full length constructs that render the cells dependent on the introduced kinase for growth. Inhibitors of c-Kit mutant D816V kinase reduce or eliminate the mediated c-kit mutant D816V kinase activation, resulting in reduced cell proliferation of the BaF3-FL Kit mutant D816V cells. This inhibition is measured by the effect of compound concentration on cell growth to assess IC50 values. BaF3-FL KIT D816V cells were seeded at 1×10^4 cells per well of a 96 well cell culture plate in 50 μl of cell culture medium of RPMI Medium 1X (Invitrogen #11875-093) supplemented with 10% FBS (Invitrogen #10438), 1% Non Essential Amino Acids(Invitrogen #11140), 1% Penicillin Streptomycin (Invitrogen #15140), 1% L-Glutamine (Invitrogen #25030-081). Compounds were dissolved in DMSO at a concentration of 5 mM and were serially diluted 1:3 for a total of eight points and added to the cells to a final maximum concentration of 10 μM in 100 μl cell culture medium (final concentration 0.2% DMSO). Cells were also treated with Dasatinib as a positive control. The cells were incubated at 37° C., 5% CO2 for three days. ATPlite Buffer (Perkin Elmer #6016739) and substrate were equilibrated to room temperature, and enzyme/substrate Recombinant Firefly Luciferase/D-Luciferin was reconstituted. The cell plates were equilibrated to room temperature for 30 minutes, then lysed by addition of 25 uL per well of the ATPlite Reagent. The plate was mixed for 5 minutes on a plate shaker to lyse the cells. The plates were read on a Tecan Safire using Luminescence protocol modified to read 0.1 s per well. The luminescence reading assesses the ATP content, which correlates directly with cell number such that the reading as a function of compound concentration is used to determine the IC50 value.
Plasmids P75635 and P75565 were engineered for mammalian cell expression. In both plasmids, full-length human v-kit Hardy-Zuckerman 4 feline sarcoma viral oncogene homolog gene (NCBI accession NM_000222, KIT, residues M1-V976) was subcloned into the pCI-Neo vector (Promega E1841). Plasmid P75635 contains the mutation of residue Aspartic acid 816 to Valine. Plasmid P75565 contains the double mutation of residues Valine 560 to Glycine and Aspartic acid 816 to Valine. The pCI-neo Mammalian Expression Vector carries the human cytomegalovirus (CMV) immediate-early enhancer/promoter region to promote constitutive expression of KIT and contains the neomycin phosphotransferase gene, a selectable marker.
It is understood that the results of these assays may vary as assay conditions are varied. Inhibition levels determined under the conditions described herein represent a relative activity for the compounds tested under the specific conditions employed. The cell based assays are likely to show variability due to the complexity of the system and the sensitivity thereof to any changes in the assay conditions. […] In some instances, the compounds were not tested in all of the assays, or assay results were not valid.
Background: Cellular ATP, detected with luciferase, serves as a proxy for viable cell number.
As to `O=C(O)c1ccc(C(=O)Nc2cnc3[nH]c(-c4ccccc4)cc3c2)cc1` [P-2303, 4-[(2-phenyl-1H-pyrrolo[2,3-b]pyridin-5-yl)carbamoyl]benzoic acid], the IC50 was < 10 µM.

`Cc1nn(C2CCN(C(=O)C3CC3)CC2)cc1-c1cc2cc(NC(=O)c3n[nH]c(C)c3C)cnc2[nH]1` [P-2203, N-(2-(1-(1-(cyclopropanecarbonyl)piperidin-4-yl)-3-methyl-1H-pyrazol-4-yl)-1H-pyrrolo[2,3-b]pyridin-5-yl)-4,5-dimethyl-1H-pyrazole-3-carboxamide]: the IC50 was < 10 µM.

In the case of `O=C(Nc1cnc2[nH]c(-c3ccccc3)cc2c1)c1cccc2[nH]ccc12` [P-2299, N-(2-phenyl-1H-pyrrolo[2,3-b]pyridin-5-yl)-1H-indole-4-carboxamide], the 50% inhibitory concentration (IC50) was < 10 µM.

With `Cc1n[nH]c(C(=O)Nc2cnc3[nH]c(-c4cccc(Cl)c4C)cc3c2)c1C` [P-2147, N-[2-(3-chloro-2-methyl-phenyl)-1H-pyrrolo[2,3-b]pyridin-5-yl]-3,4-dimethyl-1H-pyrazole-5-carboxamide], the 50% inhibitory concentration (IC50) was < 10 µM.

On to `Cc1[nH]nc(C(=O)Nc2cnc3[nH]c(-c4ccnc(F)c4)cc3c2)c1C` [P-2245, N-(2-(2-fluoropyridin-4-yl)-1H-pyrrolo[2,3-b]pyridin-5-yl)-4,5-dimethyl-1H-pyrazole-3-carboxamide], for which the IC50 was < 10 µM.

On to `Cc1[nH]nc(C(=O)Nc2cnc3[nH]c(C4=CC(C)(C)NC(C)(C)C4)cc3c2)c1C` [P-2266, 4,5-dimethyl-N-(2-(2,2,6,6-tetramethyl-1,2,3,6-tetrahydropyridin-4-yl)-1H-pyrrolo[2,3-b]pyridin-5-yl)-1H-pyrazole-3-carboxamide], for which the IC50 was < 10 µM.

For the compound `O=C(Nc1cnc2[nH]c(-c3ccccc3)cc2c1)c1cccnn1` [P-2014, N-(2-phenyl-1H-pyrrolo[2,3-b]pyridin-5-yl)pyridazine-3-carboxamide], the IC50 is < 10 µM.

In the case of `Cc1[nH]nc(C(=O)Nc2cnc3[nH]c(-c4ccnc(N5CCCCC5)c4)cc3c2)c1C` [P-2209, 4,5-dimethyl-N-(2-(2-(piperidin-1-yl)pyridin-4-yl)-1H-pyrrolo[2,3-b]pyridin-5-yl)-1H-pyrazole-3-carboxamide], the IC50 was < 10 µM.

In the case of `Cc1[nH]nc(C(=O)Nc2cnc3[nH]c(-c4ccnc(OC(C)C)c4)cc3c2)c1C` [P-2248, N-(2-(2-isopropoxypyridin-4-yl)-1H-pyrrolo[2,3-b]pyridin-5-yl)-4,5-dimethyl-1H-pyrazole-3-carboxamide], the half-maximal inhibitory concentration (IC50) was < 10 µM.

`COc1cccc(-c2cc3cc(NC(=O)c4[nH]nc(C)c4C)cnc3[nH]2)c1` [P-2098, N-[2-(3-methoxyphenyl)-1H-pyrrolo[2,3-b]pyridin-5-yl]-3,4-dimethyl-1H-pyrazole-5-carboxamide]: the half-inhibitory concentration (IC50) is < 10 µM.

As for `Cc1[nH]nc(C(=O)Nc2cnc3[nH]c(-c4ccnc(C(=O)NCCC#N)c4)cc3c2)c1C` [P-2227, N-(2-cyanoethyl)-4-(5-(4,5-dimethyl-1H-pyrazole-3-carboxamido)-1H-pyrrolo[2,3-b]pyridin-2-yl)picolinamide], the half-inhibitory concentration (IC50) was < 10 µM.

Turning to `Cc1n[nH]c(C(=O)Nc2cnc3[nH]c(-c4cccc(C(=O)N(C)C)c4)cc3c2)c1C` [P-2087, N-[2-[3-(dimethylcarbamoyl)phenyl]-1H-pyrrolo[2,3-b]pyridin-5-yl]-3,4-dimethyl-1H-pyrazole-5-carboxamide], the IC50 is < 10 µM.

Consider `Cc1[nH]nc(C(=O)Nc2cnc3[nH]c(-c4ccc(F)c(C)c4C)cc3c2)c1C` [P-2262, N-(2-(4-fluoro-2,3-dimethylphenyl)-1H-pyrrolo[2,3-b]pyridin-5-yl)-4,5-dimethyl-1H-pyrazole-3-carboxamide], for which the IC50 is < 10 µM.

For `CCCc1cc(C(=O)Nc2cnc3[nH]c(-c4ccc(F)cc4)cc3c2)[nH]n1` [P-2132, N-[2-(4-fluorophenyl)-1H-pyrrolo[2,3-b]pyridin-5-yl]-3-propyl-1H-pyrazole-5-carboxamide], the IC50 was < 10 µM.

Regarding `Cc1[nH]nc(C(=O)Nc2cnc3[nH]c(-c4cccnc4OC(F)F)cc3c2)c1C` [P-2240, N-(2-(2-(difluoromethoxy)pyridin-3-yl)-1H-pyrrolo[2,3-b]pyridin-5-yl)-4,5-dimethyl-1H-pyrazole-3-carboxamide], the 50% inhibitory concentration (IC50) was < 10 µM.

Turning to `Cc1ccccc1-c1cc2cc(NC(=O)c3[nH]nc(C)c3C)cnc2[nH]1` [P-2097, 3,4-dimethyl-N-[2-(o-tolyl)-1H-pyrrolo[2,3-b]pyridin-5-yl]-1H-pyrazole-5-carboxamide], the IC50 is < 10 µM.

`Cn1ncc2c(C(=O)Nc3cnc4[nH]c(-c5ccccc5)cc4c3)cccc21` [P-2298, 1-methyl-N-(2-phenyl-1H-pyrrolo[2,3-b]pyridin-5-yl)indazole-4-carboxamide]: the IC50 is < 10 µM.

`CC(=O)N1CCC(n2ncc(-c3cc4cc(NC(=O)c5n[nH]c(C)c5C)cnc4[nH]3)c2C)CC1` [P-2199, N-(2-(1-(1-acetylpiperidin-4-yl)-5-methyl-1H-pyrazol-4-yl)-1H-pyrrolo[2,3-b]pyridin-5-yl)-4,5-dimethyl-1H-pyrazole-3-carboxamide]: the IC50 is < 10 µM.

Turning to `Cc1[nH]nc(C(=O)Nc2cnc3[nH]c(-c4cccc(F)c4OC(F)F)cc3c2)c1C` [P-2264, N-(2-(2-(difluoromethoxy)-3-fluorophenyl)-1H-pyrrolo[2,3-b]pyridin-5-yl)-4,5-dimethyl-1H-pyrazole-3-carboxamide], the IC50 was < 10 µM.

In the case of `CC(=O)N1CC(n2cc(-c3cc4cc(NC(=O)c5n[nH]c(C)c5C)cnc4[nH]3)c(C)n2)C1` [P-2194, N-(2-(1-(1-acetylazetidin-3-yl)-3-methyl-1H-pyrazol-4-yl)-1H-pyrrolo[2,3-b]pyridin-5-yl)-4,5-dimethyl-1H-pyrazole-3-carboxamide], the IC50 was < 10 µM.

For the compound `Cc1n[nH]c(C(=O)Nc2cnc3[nH]c(-c4ccc(N5CCOCC5)nc4)cc3c2)c1C` [P-2089, 3,4-dimethyl-N-[2-(6-morpholino-3-pyridyl)-1H-pyrrolo[2,3-b]pyridin-5-yl]-1H-pyrazole-5-carboxamide], the half-maximal inhibitory concentration (IC50) is < 10 µM.

Regarding `Cc1n[nH]c(C(=O)Nc2cnc3[nH]c(-c4cnn(C)c4C)cc3c2)c1C` [P-2084, N-[2-(1,5-dimethylpyrazol-4-yl)-1H-pyrrolo[2,3-b]pyridin-5-yl]-3,4-dimethyl-1H-pyrazole-5-carboxamide], the IC50 is < 10 µM.

Turning to `O=C(Nc1cc[nH]n1)c1cnc2[nH]c(-c3ccccc3)cc2c1` [P-2004, 2-phenyl-N-(1H-pyrazol-3-yl)-1H-pyrrolo[2,3-b]pyridine-5-carboxamide], the IC50 was < 10 µM.

On to `COc1ccc(-c2cc3cc(NC(=O)c4[nH]nc(C)c4C)cnc3[nH]2)cn1` [P-2090, N-[2-(6-methoxy-3-pyridyl)-1H-pyrrolo[2,3-b]pyridin-5-yl]-3,4-dimethyl-1H-pyrazole-5-carboxamide], for which the half-inhibitory concentration (IC50) is < 10 µM.

Turning to `OC(c1cccnc1)c1cnc2[nH]c(-c3ccccc3)cc2c1` (centres unmarked) [P-2001, (2-phenyl-1H-pyrrolo[2,3-b]pyridin-5-yl)-(3-pyridyl)methanol], the IC50 was < 10 µM.

In the case of `Cc1n[nH]c(C(=O)Nc2cnc3[nH]c(-c4cccc(C(=O)N5CCOCC5)c4)cc3c2)c1C` [P-2106, 3,4-dimethyl-N-[2-[3-(morpholine-4-carbonyl)phenyl]-1H-pyrrolo[2,3-b]pyridin-5-yl]-1H-pyrazole-5-carboxamide], the IC50 was < 10 µM.

As usually defined, the IC50 is the concentration needed to halve the response being measured. A low value points to higher potency.
